Experiment [1] has as its target Epidermal growth factor receptor (Homo sapiens, UniProt P00533). The experiment in a line: Inhibition of EGFR expressed in Sf9 cells assessed as inhibition of receptor autophosphorylation by DELFIA time resolved fluorimetry.
The subject of the next experiment is HT-29. Briefly: Antiproliferative activity against human HT-29 cells after 48 hrs by MTT assay. As to conditions: HT-29, 48 h.

≈ marks a conversion by molar mass, not a printed value.

Usually IC50 stands for the concentration that inhibits the measured activity by half.

Sequence of Epidermal growth factor receptor (P00533 whole entry): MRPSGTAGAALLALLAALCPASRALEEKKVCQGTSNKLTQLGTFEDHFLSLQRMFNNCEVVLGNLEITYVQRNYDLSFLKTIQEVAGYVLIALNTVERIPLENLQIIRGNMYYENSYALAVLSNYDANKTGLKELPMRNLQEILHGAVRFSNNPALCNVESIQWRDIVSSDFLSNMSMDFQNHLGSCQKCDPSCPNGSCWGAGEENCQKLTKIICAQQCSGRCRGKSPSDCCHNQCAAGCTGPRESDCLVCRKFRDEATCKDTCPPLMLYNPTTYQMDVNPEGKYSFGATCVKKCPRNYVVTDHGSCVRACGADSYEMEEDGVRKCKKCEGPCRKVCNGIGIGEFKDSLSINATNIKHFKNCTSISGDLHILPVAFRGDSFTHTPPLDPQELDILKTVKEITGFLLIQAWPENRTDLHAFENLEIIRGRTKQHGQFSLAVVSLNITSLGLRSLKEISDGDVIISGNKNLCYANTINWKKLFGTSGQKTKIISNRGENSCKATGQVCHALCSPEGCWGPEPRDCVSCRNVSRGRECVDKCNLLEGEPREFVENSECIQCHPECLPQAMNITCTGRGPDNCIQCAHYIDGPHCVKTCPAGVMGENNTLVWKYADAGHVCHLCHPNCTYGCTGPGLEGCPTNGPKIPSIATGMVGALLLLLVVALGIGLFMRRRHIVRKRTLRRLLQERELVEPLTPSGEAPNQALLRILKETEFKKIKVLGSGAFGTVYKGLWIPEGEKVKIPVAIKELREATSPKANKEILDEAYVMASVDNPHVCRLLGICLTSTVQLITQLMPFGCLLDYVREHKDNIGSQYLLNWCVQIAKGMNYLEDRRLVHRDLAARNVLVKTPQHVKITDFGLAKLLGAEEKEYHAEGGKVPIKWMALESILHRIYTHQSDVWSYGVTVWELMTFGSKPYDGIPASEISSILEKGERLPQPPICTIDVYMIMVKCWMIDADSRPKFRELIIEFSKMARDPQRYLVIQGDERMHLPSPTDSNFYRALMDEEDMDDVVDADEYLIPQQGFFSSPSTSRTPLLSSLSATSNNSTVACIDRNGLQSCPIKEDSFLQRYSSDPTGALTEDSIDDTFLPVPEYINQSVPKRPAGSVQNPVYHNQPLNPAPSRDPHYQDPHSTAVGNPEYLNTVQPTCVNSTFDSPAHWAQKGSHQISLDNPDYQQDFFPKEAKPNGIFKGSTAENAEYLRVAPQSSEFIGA

As to `CCCCCCCCCCCCCCCCCCCCNC(=O)COc1cc(O)c2c(=O)cc(-c3ccccc3)oc2c1`, the results for the IC50 (in experiment [1]; in the experiment on HT-29) were 1350 nM and 19 µg/mL (≈ 32.1 µM), respectively. In the experiment on HT-29, `CCCCCCCCCCCCNC(=O)COc1cc(O)c2c(=O)cc(-c3ccccc3)oc2c1` registered an IC50 of 16 µg/mL (≈ 33.4 µM).

Turning to `CCCCCCCCCCCCOC(=O)COc1cc(O)c2c(=O)cc(-c3ccccc3)oc2c1`, the results for the IC50 (in experiment [1]; with HT-29) were 1720 nM and 24 µg/mL (≈ 49.9 µM), respectively. On to `CCCCCCOC(=O)COc1cc(O)c2c(=O)cc(-c3ccccc3)oc2c1`, for which the values for the 50% inhibitory concentration (IC50) (in experiment [1]; in the experiment with HT-29) were 9120 nM and 77 µg/mL (≈ 194 µM), respectively. On to `CCCCCCCCCCOC(=O)COc1cc(O)c2c(=O)cc(-c3ccccc3)oc2c1`, for which the figures for the IC50 (in experiment [1]; in the experiment with HT-29) were 3110 nM and 31 µg/mL (≈ 68.5 µM), respectively. Taken in the same sequence, the figures for `CCCCCCCCCOC(=O)COc1cc(O)c2c(=O)cc(-c3ccccc3)oc2c1` were 4960 nM and 43 µg/mL (≈ 98.1 µM). As for `CCCCCCCCCCCCCCCCOC(=O)COc1cc(O)c2c(=O)cc(-c3ccccc3)oc2c1`, the IC50 in experiment [1] is 48 nM; in the experiment with HT-29, 8.7 µg/mL (≈ 16.2 µM). With `CCCCCCCNC(=O)COc1cc(O)c2c(=O)cc(-c3ccccc3)oc2c1`, the IC50 in experiment [1] amounted to 6280 nM; with HT-29, 65 µg/mL (≈ 159 µM).

For the molecule `CCCCCCCCCCCCCCCCCCNC(=O)COc1cc(O)c2c(=O)cc(-c3ccccc3)oc2c1`, the figures for the 50% inhibitory concentration (IC50) (in experiment [1]; in the experiment with HT-29) were 464 nM and 11 µg/mL (≈ 19.5 µM), respectively. Taken in the same sequence, the figures for `CCCCCCCCOC(=O)COc1cc(O)c2c(=O)cc(-c3ccccc3)oc2c1` were 5840 nM and 51 µg/mL (≈ 120 µM).

As for `CCCCCCCCCCCCCCCCCCOC(=O)COc1cc(O)c2c(=O)cc(-c3ccccc3)oc2c1`, the IC50 in experiment [1] came out at 692 nM; in the experiment on HT-29 it was 15 µg/mL (≈ 26.6 µM). The matching figures for `CCCCCCCCCCCCCCCCNC(=O)COc1cc(O)c2c(=O)cc(-c3ccccc3)oc2c1`: 35 nM and 4.2 µg/mL (≈ 7.84 µM). Taken in the same sequence, the figures for `CCCCCCCCCCCCCCCCCCCCOC(=O)COc1cc(O)c2c(=O)cc(-c3ccccc3)oc2c1` were 1590 nM and 20 µg/mL (≈ 33.7 µM). `CCCCCCNC(=O)COc1cc(O)c2c(=O)cc(-c3ccccc3)oc2c1`: the IC50 in experiment [1] was 8710 nM; with HT-29 it was 67 µg/mL (≈ 169 µM). Regarding `CCCCCCCOC(=O)COc1cc(O)c2c(=O)cc(-c3ccccc3)oc2c1`, the figures for the IC50 (in experiment [1]; in the experiment with HT-29) were 7230 nM and 58 µg/mL (≈ 141 µM), respectively. Taken in the same sequence, the figures for `CCCCCCCCCCCCCCNC(=O)COc1cc(O)c2c(=O)cc(-c3ccccc3)oc2c1` were 316 nM and 8 µg/mL (≈ 15.8 µM). Turning to `CCCCCCCCCCCCCCOC(=O)COc1cc(O)c2c(=O)cc(-c3ccccc3)oc2c1`, the IC50 in the experiment with HT-29 amounted to 16 µg/mL (≈ 31.5 µM). Turning to `CCCCCCCCCCNC(=O)COc1cc(O)c2c(=O)cc(-c3ccccc3)oc2c1`, the IC50 in experiment [1] was found to be 2140 nM; with HT-29 it was 25 µg/mL (≈ 55.4 µM). The matching figures for `CCCCCCCCNC(=O)COc1cc(O)c2c(=O)cc(-c3ccccc3)oc2c1`: 5330 nM and 51 µg/mL (≈ 120 µM). Taken in the same sequence, the figures for `CCCCCCCCCNC(=O)COc1cc(O)c2c(=O)cc(-c3ccccc3)oc2c1` were 3580 nM and 39 µg/mL (≈ 89.1 µM).
